Laboratory results reported in PMC9223397 (International Journal of Molecular Sciences, 2022).

Columns and labels:
[1] = tested on: NSC34 SOD1^G93A-induced cell death; parameters: method as in PMID 24334165; settings: more significant effect at 10 μM; cited from earlier work
Sig-1R/BiP interaction = assay: BiP/Sig-1R association assay in CHO cells; assay type: cell-based; settings: for Effect on Sig-1R/BiP association: 10 µM
Experimental: The interaction between Sig-1R and the chaperone BiP was used to identify the functional nature (agonistic or antagonistic) of compounds [38]. The assay was conducted by Amylgen according to their standard assay protocol (https://www.amylgen.fr/ (accessed on 15 May 2022)). Each assay condition consisted of six determinations. In brief, CHO cells were treated with compounds at 37 °C for 30 min and lysed. CHO cell lysates were immunoprecipitated with Sig-1R antibody, and coimmunoprecipitated BiP was detected by ELISA assay. In each experiment, untreated control cell lysates were used to assess the maximal level of Sig1R-BiP interaction and represented 100% of Sig1R-BiP association. Cells treated with compounds at the corresponding concentrations were equally processed, and the level of Sig1R-BiP association in those conditions was referred to as the control condition. In this experimental setting, Sig1R agonists were able to reduce the Sig1R-BiP interaction, while antagonists were not.

[2] = target: T1, human Sigma-2 receptor (Sig-2R) (Homo sapiens, UniProt Q5BJF2); assay: Human Sig-2R radioligand assay; assay type: binding; settings: [3H]-DTG, transfected HEK-293 Sig-1R knockout membranes
T1 construct: expressed in transfected cells; host or cells: HEK-293 Sig-1R knockout (membranes)
T1 sequence (Q5BJF2 whole entry): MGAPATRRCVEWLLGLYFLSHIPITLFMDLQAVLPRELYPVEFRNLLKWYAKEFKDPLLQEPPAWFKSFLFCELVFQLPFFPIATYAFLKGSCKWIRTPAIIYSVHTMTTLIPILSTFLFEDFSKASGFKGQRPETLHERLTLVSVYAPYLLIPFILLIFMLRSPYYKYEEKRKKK
Experimental: The binding properties of the compounds to the human Sig-2R were similarly studied in transfected HEK-293 Sig-1R knockout membranes using [^3H]-1,3-di-o-tolylguanidine (DTG) (NET-986, PerkinElmer; Boston, USA) as the radioligand. The assay was carried out with 15 μg of membrane suspension, [^3H]-1,3-di-o-tolylguanidine (DTG) (10 nM, 100 μL), in either the absence or presence of either buffer or 10 μM haloperidol for total (TB) and nonspecific (NSB) binding, respectively, or the corresponding compound concentration. Binding buffer contained Tris-HCl (50 mM, pH 7.4). Plates were incubated at 25 °C for 120 min. After incubation, the reaction mix was transferred to MultiScreen HTS, FC plates (Merck Millipore) presoaked in 0.5% polyethyleneimine, and filtered. Following that, plates were washed with ice-cold Tris-HCl (10 mM, pH 8). Filters were dried and counted, and data were processed as above.

[3] = Plasma levels, spinal nerve injury (rhizotomy) model; assay type: in vivo, female mouse; settings: plasma, ip; spinal nerve injury female mouse, 0.25 mg/kg i.p.; 30 min post-administration; data obtained in a separate study
Experimental: (§1) The compounds were dissolved in 0.5% hydroxypropyl-methylcellulose (HPMC; H7509, Sigma-Aldrich) in distilled water and were administered by intraperitoneal (i.p.) route twice daily (bid) in a volume of 10 mL/kg. Administrations were given from 30 min after rhizotomy surgery until 42 days post-injury (dpi), the end of the study; in the SOD1^G93A study, treatments were given from 8 to 16 weeks of age (see Figure 6).
Plasma levels were determined in the two in vivo models evaluated to be able to associate the pharmacological activity with the levels present in plasma. […] In the SOD1^G93A model, the plasma levels were evaluated at 16 weeks of age (after 8 weeks of administration) and 15 min after compound administration (5 mg/kg i.p.). Plasma samples were assayed by ultraperformance liquid chromatography−triple quadrupole mass spectrometry (UPLC-MS/MS) after plasma protein precipitation. Results are expressed as mean ± standard deviation (n = 8).

[4] = Plasma levels, SOD1G93A model; assay type: in vivo, Transgenic SOD1^G93A male mouse; settings: SOD1G93A transgenic, plasma, ip; SOD1G93A male mouse, 0.25 mg/kg i.p.; 30 min post-administration; data obtained in a separate study
Experimental: as §1
Plasma levels were determined in the two in vivo models evaluated to be able to associate the pharmacological activity with the levels present in plasma. In the rhizotomy model, the plasma levels were evaluated at Day 42 after surgery and at 15 min after compound administration (0.5 and 5 mg/kg i.p.). […] Plasma samples were assayed by ultraperformance liquid chromatography−triple quadrupole mass spectrometry (UPLC-MS/MS) after plasma protein precipitation. Results are expressed as mean ± standard deviation (n = 8).

[5] = tested on: spinal MNs after L4-L5 rhizotomy; assay: MN survival after L4-L5 rhizotomy (cresyl violet MN counts); assay type: in vivo, female mice (B6SJL); settings: 0.25 mg/kg bid i.p., 42 dpi; positive control
Experimental: (§2) Surgeries were performed on three-month-old mice under anesthesia with ketamine-xylazine (100–10 mg/kg i.p.) as previously described. Briefly, the L4-L5 spinal roots were exposed by a small laminectomy on the right side. Afterwards, roots were cut at the exit from the intervertebral foramina, and the root stumps were separated. Mice were cared for until recovery in a warm environment. Analgesia was provided with buprenorphine (0.1 mg/kg) for the next 48 h post-surgery.
as §1
(§3) At the end of follow-up (42 dpi for rhizotomy and 16 weeks of age for ALS mice; Figure 6), the animals were deeply anesthetized and transcardially perfused with 4% PFA in PBS. The lumbar spinal cord and the TA muscle were harvested and cryopreserved in 30% sucrose solution in PB. The spinal cords were serially cut in 20 µm thick transverse sections with a cryostat (Leica, Mannheim, Germany). For MN counting, L4-L5 spinal cord sections separated 100 µm were stained for 3 h with an acidified solution of 3.1 mM cresyl violet. MNs were identified by their localization in the lateral ventral horn of the spinal cord and were counted following strict size and morphological criteria: only MNs with a diameter larger than 20 µm, polygonal shape, and prominent nucleoli were counted.

[6] = tested on: microglia and astrocytes in ventral horn after rhizotomy; assay: Glial reactivity after L4-L5 rhizotomy (Iba1, GFAP immunolabeling); assay type: in vivo, female mice (B6SJL); settings: 0.25 mg/kg bid i.p., 42 dpi
Experimental: as §2, §1
(§4) For glial cells immunofluorescence, other lumbar spinal cord sections were blocked with 10% normal donkey serum and incubated overnight with primary antibodies rabbit anti-Iba1 (1:500; 019–19741, Wako) and rat anti-GFAP (1:500; 13-0300, Invitrogen) to label microglia and astroglia, respectively. After several washes, sections were incubated with secondary antibodies Alexa Fluor 488-donkey anti-rat (1:500; A-21208, Invitrogen) or Alexa Fluor 594 donkey anti-rabbit (1:500; A21207, Invitrogen). Finally, sides were mounted with Fluoromount-G. To quantify glial cell reactivity, images of the ventral horn were acquired with an epifluorescence microscope (Nikon Eclipse Ni, Japan) using the same conditions for each analyzed marker. After defining a threshold for background correction, the integrated density of GFAP or Iba1 labeling was measured using ImageJ software.

SOD1^G93A mice = assay: Rotarod test in SOD1G93A mice; assay type: in vivo, SOD1^G93A male mice; settings: 0.25 mg/kg i.p.; at 15 and 16 weeks
Experimental: as §1
A rotarod test was performed to evaluate motor coordination and strength. The time that each animal remained on the rotating rod at a speed of 14 rpm was measured for five trials per mouse, and the longest time until falling was recorded; 180 s was chosen as the cut-off time. The test was performed weekly from 8 to 16 weeks of age in SOD1^G93A and WT mice, and disease onset was determined as the first week when each mouse was unable to keep walking for 180 s on the rod.

[7] = tested on: NMJs of hindlimb muscle in SOD1^G93A mice; assay: Neuromuscular junction innervation in SOD1G93A mice; assay type: in vivo, SOD1^G93A male mice; settings: 0.25 mg/kg i.p.; 16 weeks of age
Experimental: as §1
For neuromuscular junction (NMJ) labeling, 50 µm thick longitudinal sections of TA muscle were serially cut. Sections were blocked with 5% normal donkey serum and incubated with primary antibodies rabbit anti-synaptophysin (1:500; Ab32127, Abcam, Cambridge, UK) and chicken anti-neurofilament 200 (NF200, 1:1000; AB5539, Millipore, Burlington, MS, USA) 48 h at 4 °C. After washes, sections were incubated overnight with secondary antibody Alexa Fluor 594-donkey anti-rabbit and anti-chicken (1:200; A11042-A21207, Invitrogen, USA) and Alexa 488 conjugated α-bungarotoxin (1:500; B13422, Life Technologies, Carlsbad, CA USA). Confocal images were captured (LSM 700 Axio Observer, Carl Zeiss, Jena, Germany, 40xOil/z0.5), and the maximum projection images generated from 1.3 µm z projections. The proportion of innervated NMJs was calculated by classifying each endplate as occupied (when presynaptic terminals overlie the endplate) or vacant (no presynaptic label in contact with the endplate). At least 60 endplates were analyzed per muscle.

[8] = tested on: spinal α-MNs in SOD1^G93A mice; assay: Spinal MN counts in SOD1G93A mice; assay type: in vivo, SOD1^G93A male mice; settings: 0.25 mg/kg i.p.; 16 weeks of age
Experimental: as §1, §3

[9] = tested on: microglia and astrocytes in ventral horn of SOD1^G93A mice; assay: Glial reactivity in SOD1G93A mice (Iba1, GFAP); assay type: in vivo, SOD1^G93A male mice; settings: 0.25 mg/kg i.p.; 16 weeks of age
Experimental: as §1, §4

[10] = Body weight in SOD1G93A mice; assay type: in vivo, SOD1^G93A male mice; settings: 0.25 mg/kg i.p., 8 to 16 weeks of age
Experimental: as §1

SMILES	NSC34 SOD1G93A-induced cell death [1]	Effect on Sig-1R/BiP association (Sig-1R/BiP interaction)	Reversion of the effect of PRE-084 on Sig-1R/BiP association (Sig-1R/BiP interaction; compound 10 µM, PRE-084 10 µM)	IC50 [2]	concentration at 30 min [3]	concentration at 30 min [4]	Number of spinal MNs ± SEM, ipsilateral ventral horn [5]	GFAP integrated density ± SEM (astroglial reactivity) [6]	Iba1 integrated density ± SEM (microglial reactivity) [6]	Rotarod performance vs vehicle (SOD1^G93A mice)	Proportion of innervated endplates (NMJ) vs untreated [7]	Number of surviving spinal α-MNs [8]	Astrocyte activation (GFAP) [9]	Body weight vs vehicle group [10]
COc1ccc(CCN2CCN(CCCc3ccccc3)CC2)cc1OC [SA4503]	reduced NSC34 SOD1^G93A-induced cell death in a concentration-dependent manner													
CCCN(CCC)CCc1ccc(OC)c(OCCc2ccccc2)c1 [NE100, reference compound]		antagonist effect	able to revert the effect of PRE-084											
O=C(OCCN1CCOCC1)C1(c2ccccc2)CCCCC1 [PRE-084, 2-(4-Morpholinethyl)1-Phenylcyclohexanecarboxylate, reference compound]		Agonist effect		> 10 µM	3.6 ng/mL	2.6 ng/mL	8.9 ± 0.4	6 × 10^4 ± 0.9 × 10^4	15 × 10^4 ± 1.4 × 10^4	significantly improved the functional outcome	significantly increased the proportion of innervated endplates	12.4 ± 0.9 MNs per section	significant decrease in astrocyte activation	did not cause differences in body weight
